Measured values: patent publication EP1579856A1 (LABORATOIRES BESINS INTERNATIONAL, priority 2004, dated 2005)
Like-named read-outs stand apart in the source and are kept apart here. Marks after values point to notes of the source that are not given here.

Columns and labels:
clinical = experiment: clinical; set-up: species or system women; details: in vivo
Protocol: At the end of a menstrual cycle, each patient received a single dose, after which serial blood samples were collected at 0, 0.5, 1, 1.5, 2, 3, 4, 6, 12, 18, 24, 36, 48, and 72 hours.

[1] = in vivo
Protocol: Each participant applied the gel daily for the duration of two menstrual cycles.
On the first day of the following menstruation, treatment, which consisted of daily application of the gel over two menstrual cycles, began. Blood samples were collected 24 hours following the morning application of gel on days 7, 20 and 25 of the first and second cycles. On the last day of administration, day 25 of the second menstrual cycle, serial blood samples were collected prior to application and at 0.5, 1, 1.5, 2, 3, 4, 6, 12, 18, 24, 36, 48, and 72 hours after application of the gel.

[2] = in vivo; remark: listed apart in the source
Protocol: (§1) The patients received [^3H]-labeled drug applied directly on the affected breasts at specified intervals ranging from 12 hours to 7 days before surgery to excise diseased tissue. Breast tissue from three regions: the tumor, tissue immediately surrounding the tumor, and normal tissue, was excised and immediately frozen in liquid nitrogen. Additionally, plasma and urine samples were obtained at scheduled intervals and frozen until analysis.

[3] = in vivo; remark: listed apart in the source
Protocol: as §1

[4] = in vivo; remark: listed apart in the source
Protocol: as §1

estrone sulphatase = target: T1, estrone sulphatase (Homo sapiens, UniProt P08842); details: mammary cancer cell lines; cited from earlier work
T1 construct: estrone sulphatase activity in mammary cancer cell lines; endogenous in cells
T1 sequence (P08842 22-583): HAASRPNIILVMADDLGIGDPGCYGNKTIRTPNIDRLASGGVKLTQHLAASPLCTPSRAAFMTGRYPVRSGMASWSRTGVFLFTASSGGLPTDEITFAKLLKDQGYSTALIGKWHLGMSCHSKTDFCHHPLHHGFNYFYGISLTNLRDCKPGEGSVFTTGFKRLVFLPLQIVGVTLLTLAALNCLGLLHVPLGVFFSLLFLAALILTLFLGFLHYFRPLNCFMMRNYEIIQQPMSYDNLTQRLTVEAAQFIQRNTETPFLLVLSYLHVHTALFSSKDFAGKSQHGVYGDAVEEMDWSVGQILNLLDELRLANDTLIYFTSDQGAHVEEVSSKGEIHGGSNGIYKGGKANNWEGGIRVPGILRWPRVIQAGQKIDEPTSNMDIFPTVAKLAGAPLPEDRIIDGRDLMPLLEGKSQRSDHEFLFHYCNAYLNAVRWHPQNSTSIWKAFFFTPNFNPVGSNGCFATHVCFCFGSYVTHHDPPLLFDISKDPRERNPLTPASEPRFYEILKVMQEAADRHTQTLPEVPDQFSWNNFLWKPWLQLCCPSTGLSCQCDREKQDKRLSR

[5] = percutaneous dose of 1 mg/breast/day; cited from earlier work
[6] = Group 2: 4-OHT gel (20 mg/100 g) 0.5 mg/day, both breasts, 3-4 weeks; n=5; cited from earlier work
estrogen receptors = details: more affinity than tamoxifen; cited from earlier work
rat liver = details: in vivo; cited from earlier work
[7] = Example 1 follow-up study: radioactivity and metabolites in blood
Protocol: as §1

[8] = system: normal human epithelial breast cells; details: more than Z-tamoxifen; cited from earlier work
[9] = cited from earlier work
[10] = system: p53(-) normal human mammary epithelial cells; details: cited from earlier work
[11] = cited from earlier work; remark: listed apart in the source
[12] = Example 1 follow-up study: radioactivity and metabolites in breast tissue after percutaneous application; details: for % Metabolites in Breast Tissue: breast tumor tissue
Protocol: as §1

[13] = oral tamoxifen group, 20 mg/day

With `CCC(=C(c1ccc(O)cc1)c1ccc(OCCN(C)C)cc1)c1ccccc1` [4-hydroxy tamoxifen, 1-[4-(2-N-dimethylaminoethoxy)phenyl]-1-(4-hydroxyphenyl)-2-phenylbut-1-ene] the “t1/2 (Range)” value (clinical; human, topical or ocular) was “(49 - 101) hr”, the half-life (clinical; human, topical or ocular, t1/2 (Range)) was 58 to 118 h and the “patients with detectable plasma concentrations (>5 pg/mL)” value (clinical) was 6 of 12. For the same compound, the “laboratory or clinical evidence of systemic effects” value [1] was “no detectable”, the “distribution within breast tissue” value [2] was “concentrated predominantly in the cytosolic and nuclear fractions of breast tissue” and the “metabolism in intracellular sites of breast tissue” value [2] was “remained unmetabolized except for limited isomerization from the Z to the E form”. For the same compound, the “retention in the breast” value [2] was “approximately 4 days”, the “% of radioactivity in blood represented by” value [3] was 68% and the peak urinary elimination [4] was “later time”. For the same compound, the “inhibitory effect on estrone sulphatase activity” value (estrone sulphatase) was “significant inhibitory effect”, the “4-hydroxy tamoxifen concentration in breast tissue exceeds normal estradiol concentrations in breast tissue by a factor of” value [5] was 4 and the “Mean ± SD 4-hydroxy tamoxifen (Range), Plasma Concentrations, Day Pre-Surgery” value [6] was 0 (0 - 0)^a pg/mL. For the same compound, the “affinity for estrogen receptors” value (estrogen receptors) was 100 fold and the rat liver carcinogen (rat liver) was “not”.

With `CCC(=C(c1ccc(O)cc1)c1ccc(OCCNC)cc1)c1ccccc1` [N-Desmethyl-4-Hydroxy Tamoxifen] the “% of radioactivity in blood represented by” value ([7]; 24 hours after percutaneous administration of [3H]-4-hydroxy tamoxifen) was 18%.

For `CC/C(=C(\c1ccc(O)cc1)c1ccc(OCCN(C)C)cc1)c1ccccc1` [Z-4-hydroxy tamoxifen], the “inhibits the growth in culture of normal human epithelial breast cells” value [8] is listed as 100 fold.

With `CC/C(=C(\c1ccccc1)c1ccc(OCCN(C)C)cc1)c1ccccc1` [[^3H]-tamoxifen, reference compound] the “plateau of radioactivity in blood” value ([7]; percutaneous application) was 2 days.

For `CC/C(=C(\c1ccccc1)c1ccc(OCCN(C)C)cc1)c1ccccc1` [tamoxifen], the “inhibitory effect on estrone sulphatase activity” value (estrone sulphatase) is listed as “little or no effect”, the “decrease of risk of benign breast disease” value (“decrease” for short) ([9]; cyst) is listed as 34% and the “decrease” value ([9]; duct ectasia) is listed as 28%. For the same compound, the “decrease” value ([9]; fibrocystic disease) was 33%, the “decrease” value ([9]; hyperplasia) was 40% and the “reduces the risk of developing benign breast disease” value ([9]; overall) was 28%. For the same compound, the “reduction of the need for breast biopsies” value ([9]; women under 50) was 41%, the rat liver carcinogen (rat liver) was “potent rat liver carcinogen” and the initiates apoptosis [10] was “initiates apoptosis”. For the same compound, the “side effects reported by one person” value ([11]; Group 2 (0.5 mg/day gel): seventh day of treatment, Group 1 (oral tamoxifen): fifth day of treatment) was “hot flashes and mild vaginitis”, the “anti-thrombin III and fibrinogen, pre- versus post treatment” value [11, 13] was “statistically significant decrease” and the “platelet and lymphocyte counts, pre- versus post treatment” value [11, 13] was “statistically significant increase”. The “% Metabolites in Breast Tissue” value ([12]; Day 4 after percutaneous administration of Z-[3H]-4-hydroxy tamoxifen to the affected breast) was <1%, the “% Metabolites in Breast Tissue” value ([12]; Day 7 after percutaneous administration of Z-[3H]-4-hydroxy tamoxifen to the affected breast) was 2% and the “retention in the breast” value ([12]; percutaneous application of [3H]-labeled drug) was “shorter and far weaker”.
